Measurements taken from article PMC12259270, “Sensory neuron–expressed FGF13 controls nociceptive signaling in diabetic neuropathy models” (The Journal of Clinical Investigation, 2025).
“Also recorded” adds a separate entry of the source. Residues, ends and D or L forms follow the SMILES beside them. *: point of attachment. Cbz = O=C(OCc1ccccc1)*; OtBu = CC(C)(C)O*

Experiments:
[1] = molecular target: T1, human Nav1.6 (Homo sapiens, UniProt Q9UQD0); experiment: Whole-cell patch-clamp, HEK293 cells stably expressing human Nav1.6; assay type: cell-based
T1 construct: expressed in transfected cells; host or cells: HEK293 stably expressing human Nav1.6
T1 sequence (Q9UQD0 whole entry): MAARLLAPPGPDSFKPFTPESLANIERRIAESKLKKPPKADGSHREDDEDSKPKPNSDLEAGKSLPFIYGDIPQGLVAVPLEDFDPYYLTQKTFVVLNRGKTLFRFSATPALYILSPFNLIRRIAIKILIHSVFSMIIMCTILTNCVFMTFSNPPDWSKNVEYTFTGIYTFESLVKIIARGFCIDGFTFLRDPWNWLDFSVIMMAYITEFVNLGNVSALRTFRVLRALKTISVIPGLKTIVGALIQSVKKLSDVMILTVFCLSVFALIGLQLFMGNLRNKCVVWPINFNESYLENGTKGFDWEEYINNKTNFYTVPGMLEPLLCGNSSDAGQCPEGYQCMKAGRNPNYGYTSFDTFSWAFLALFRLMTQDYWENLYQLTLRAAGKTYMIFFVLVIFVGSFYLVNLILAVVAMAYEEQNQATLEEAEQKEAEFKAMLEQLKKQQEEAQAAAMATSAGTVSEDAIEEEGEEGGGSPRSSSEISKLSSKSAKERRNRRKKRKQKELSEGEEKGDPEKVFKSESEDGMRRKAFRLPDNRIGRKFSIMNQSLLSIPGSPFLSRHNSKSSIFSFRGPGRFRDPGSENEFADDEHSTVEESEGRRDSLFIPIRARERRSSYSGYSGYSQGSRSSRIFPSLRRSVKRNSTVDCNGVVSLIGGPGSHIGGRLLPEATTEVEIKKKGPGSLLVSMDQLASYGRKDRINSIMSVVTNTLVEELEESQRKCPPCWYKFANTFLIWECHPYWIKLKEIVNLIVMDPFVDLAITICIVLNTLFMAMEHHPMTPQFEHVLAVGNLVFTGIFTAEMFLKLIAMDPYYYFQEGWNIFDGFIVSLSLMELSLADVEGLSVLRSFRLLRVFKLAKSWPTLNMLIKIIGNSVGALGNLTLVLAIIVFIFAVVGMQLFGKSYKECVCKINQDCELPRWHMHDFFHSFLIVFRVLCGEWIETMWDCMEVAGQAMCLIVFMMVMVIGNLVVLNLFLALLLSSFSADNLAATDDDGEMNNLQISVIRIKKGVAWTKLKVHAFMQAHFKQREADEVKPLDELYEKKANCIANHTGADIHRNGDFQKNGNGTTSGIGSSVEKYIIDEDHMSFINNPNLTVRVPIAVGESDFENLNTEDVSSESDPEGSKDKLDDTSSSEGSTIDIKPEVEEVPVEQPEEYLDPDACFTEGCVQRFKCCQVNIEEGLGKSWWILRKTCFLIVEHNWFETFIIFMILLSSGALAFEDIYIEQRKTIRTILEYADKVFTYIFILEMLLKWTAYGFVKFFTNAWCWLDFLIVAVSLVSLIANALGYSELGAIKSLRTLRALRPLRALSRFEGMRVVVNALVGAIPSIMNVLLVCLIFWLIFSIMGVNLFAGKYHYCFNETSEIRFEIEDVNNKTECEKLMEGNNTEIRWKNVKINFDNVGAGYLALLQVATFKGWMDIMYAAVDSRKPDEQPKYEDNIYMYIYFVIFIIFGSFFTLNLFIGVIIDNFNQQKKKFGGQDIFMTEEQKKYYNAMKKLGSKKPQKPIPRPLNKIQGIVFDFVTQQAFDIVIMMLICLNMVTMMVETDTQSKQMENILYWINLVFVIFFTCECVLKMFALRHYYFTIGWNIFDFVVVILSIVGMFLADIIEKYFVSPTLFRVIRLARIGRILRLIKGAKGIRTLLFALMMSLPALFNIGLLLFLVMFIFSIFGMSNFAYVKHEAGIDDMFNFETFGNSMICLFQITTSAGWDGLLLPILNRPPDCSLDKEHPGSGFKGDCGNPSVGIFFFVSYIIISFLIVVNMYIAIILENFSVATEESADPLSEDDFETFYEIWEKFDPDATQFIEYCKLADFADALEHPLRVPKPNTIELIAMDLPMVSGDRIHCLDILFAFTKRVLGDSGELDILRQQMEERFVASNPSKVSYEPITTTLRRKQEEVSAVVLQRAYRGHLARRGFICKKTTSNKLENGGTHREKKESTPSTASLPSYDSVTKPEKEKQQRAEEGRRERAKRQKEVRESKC
Protocol: Whole-cell patch clamp electrophysiology
HEK293-Nav1.7 cells, HEK293 stably expressing human Nav1.6 (HEK-Nav1.6), HEK293 stably expressing human Nav1.5 (HEK-Nav1.5), human hIPSC-derived sensory neurons (RealDRGTM from Anatomic Incorporated 1020F1-1M) and donor-derived DRG neurons were plated at low density on glass coverslips and processed for whole-cell patch clamp electrophysiology in voltage-clamp and/or current clamp mode. Whole-cell patch electrophysiological experiments were conducted following previously published studies (26). Current densities were obtained by dividing INa amplitude by membrane capacitance. Current –voltage relationships were generated by plotting current density as a function of the […]. Conductance (G Na) was calculated by the […]
where INa is the current amplitude at voltage Vm, and Erev is the Na+ reversal potential.
Activation curves were derived by plotting normalized GNa as a function of test potential and fitted using […]
Where GNa,Max is the maximum conductance, Va is the membrane potential of half-maximal activation, Em is the membrane voltage and k is the slope factor. For steady -state inactivation, normalized current amplitude (INa/INa,Max) at the test potential was plotted as a function of prepulse potential (Vm) and fitted using the […]
Where Vh is the potential of half-maximal inactivation, E m is the membrane voltage, and k is the slope factor.
Transient INa inactivation decay was estimated with the standard exponential equation. Inactivation time constant (tau, τ) was fitted with the following equation: […]
where I(t) is the amplitude of the current at time t and Iss is the steady-state current during a single voltage-step.
The goodness of fitting was determined by correlation coefficient (R), and the cutoff of R was set at 0.85. To observe effects on long-term inactivation (LTI), a four-step protocol was employed during which cells were subjected to four 0 mV, 20 ms depolarization pulses separated by −90 mV, 40 ms recovery intervals. To control for various cell sizes, the current densities were calculated by dividing INa peak current amplitude/membrane capacitance (Cm). To represent the fraction of channels entering into LTI, the peak INa observed during depolarization cycles 2-4 was normalized to the peak INa observed during depolarization cycle 1 (INa/INa,Cycle 1) and plotted as a function of the depolarization cycle.
The cumulative (frequency-dependent) use-dependency was determined by applying 20 pulses with a depolarization to −10 mV (50 ms duration) and 50 ms recovery intervals with a train of 20 pulses at 10 Hz from a holding potential at -70 mV. The current pulses were normalized to the first reco rded pulse and the currents at the 2nd to 20th pulses were compared. The same train was used to record use-dependency at various frequencies […]
The rate of recovery from inactivation was recorded at -80 mV with a standard repriming voltage protocol.
The cells were prepulsed to -20 mV for 20 ms to inactivate all currents, then driven back to the recovery potential (Vrec) for increasing recovery durations before the test pulse to 0 mV. The maximum pulse rate was 0.5 Hz. The […]
follows previous publications (16). The time constants were estimated from single exponential decay to time courses measured at recovery potentials ranging from -140 to -60 mV with the protocol as mentioned above.
Electrophysiological Recordings
HEK293 cells: Electrophysiological recordings in HEK293 stably expressing Nav1.7 (HEK-Nav1.7), Nav1.5 (HEK-Nav1.5) or Nav1.6 (HEK-Nav1.6) were performed at room temperature using a MultiClamp 700B or an Axopatch 200B amplifier (Molecular Devices) after incubating coverslips for 60 minutes either with 0.1% DMSO or 50 μM PW164 or ZL192 in the extracellular solution. The composition of recording solutions consisted of the […]
following salts: extracellular (mM): 140 NaCl, 3 KCl, 1 MgCl2, 1 CaCl2, 10 HEPES, 10 glucose, pH 7.3; […]
intracellular (mM): 130 CH3O3 SCs, 1 EGTA, 10 NaCl, 10 HEPES, pH 7.3. […]

[2] = test system: C57BL/6 mice; experiment: Capsaicin-induced thermal hypersensitivity (Hargreaves); assay type: in vivo, mouse
Text: FGF13 is a neuronal gene ubiquitously transcribed in DRG neuronal subtypes ([43]–[46]). To investigate neuronal subtype enrichment of the FGF13 transcript, we examined a gene panel including FGF13, SCN9A, and several marker genes in mouse single-cell transcriptomic data (Supplemental Figure 10) ([43]–[46]). […] Critically, putative silent nociceptors marked by somatostatin (SST), and the nicotinic cholinergic receptor α-3 subunit (CHRNA3) contribute to development of inflammatory mechanical hyperalgesia ([47]). […] We next determined if PW164 modulation of the FGF13/Nav1.7 complex could suppress nociceptive behaviors in WT mice. We tested whether intraplantar (i.pl.) injection (5 μL) of PW164 altered hind paw withdrawal in response to low or high intensity von Frey filament (LVF or HVF, respectively) mechanical stimulation (Figure 3A). […] Next, we evaluated PW164’s effect on mechanical and thermal hindpaw sensitivity in capsaicin-induced nociceptive hypersensitivity models. […] Next, we performed in vivo target validation in WT mice that received an intrathecal (i.t.) injection in L5 of AAV2-shFGF13 (6 μL, viral titers 1 × 10^12 vector genomes (vg)/mL); a control group received an equal number of AAV2-shCTRL particles (Figure 3C).
Experiments were performed on 6- to 12-week-old male C57BL/6 mice (The Jackson Laboratory, Bar Harbor, ME) housed in the AAALAC-accredited facility at the University of Texas Medical Branch. Mice were group-housed with up to 5 mice per cage on a 12-to-12-hour light–dark cycle and had access to water and food ad libitum. All protocols were approved by the Institutional Animal Care and Use Committee (IACUC) at the University of Texas Medical Branch and in accordance with the National Institutes of Health (NIH) guidelines.
PW164 and ZL192 were dissolved in DMSO and saline in a ratio of 1:10. 0.1% capsaicin (10% ethanol, 10% Tween-20 in saline; Sigma-Aldrich). All the compounds were injected at the center of the hind paw. The control group received a DMSO-saline mixture. […]
AAV2 viral particles packaged by the University of North Carolina Gene Therapy Core Facility (viral titer ranging […]
Before intrathecal injections in the lumbar region, mice were maintained in an anesthetizing box with 2% isoflurane to induce unconsciousness. Six microliters of viral vector were gently injected into the CSF through a 30-gauge needle with a Hamilton syringe in the lumbar area between vertebrae L4 and L5 by gently gripping the iliac crest of the mouse and inserting the needle with an angle of 45°. The correct procedure was confirmed by the mouse’s tail reflexiv e flick. […]

[3] = HEK293 Nav1.6, FGF13-1a-GFP + PW164

COC(=O)[C@@H](NC(=O)[C@H](CCC(=O)OC(C)(C)C)NC(=O)[C@H](CC(C)C)NC(=O)[C@@H]1CCCN1C(=O)OCc1ccccc1)C(C)C [PW164] (Cbz-PLE(OtBu)V-OMe)
Activation [1, 3]: −29.2 ± 1.2 mV
Long-term inactivation, 2nd Pulse [1, 3]: −67.4 ± 4.1 % maximal Na+ current
Long-term inactivation, 3rd Pulse [1, 3]: −59.7 ± 4.1 % maximal Na+ current
Long-term inactivation, 4th Pulse [1, 3]: −54.2 ± 4.9 % maximal Na+ current
Peak Density [1, 3]: −102.7 ± 8.8 pA/pF
Steady state inactivation [1, 3]: −50.8 ± 2.1 mV
Tau (τ) [1, 3]: 1.46 ± 0.04 ms
activity on Nav1.6-mediated currents ([1]; HEK293 stably expressing Nav1.6 alone or coexpressing FGF13): does not modulate; also recorded: inactive
thermal sensitivity in AAV2-shFGF13 mice after capsaicin ([2]; PW164 5 μL, 0.7mg/mL hind paw): did not further modify
capsaicin-induced thermal sensitivity ([2]; PW164 at the capsaicin injection site, 30 minutes post-capsaicin): inhibited
